Results on 5 compounds are retold here after ChEMBL document CHEMBL1821669, “Cyclic depsipeptides, grassypeptolides D and E and Ibu-epidemethoxylyngbyastatin 3, from a Red Sea Leptolyngbya cyanobacterium” (J Nat Prod, 2011).

Numbered stars: 1 amine (or outer) side, 2 acyl side, 3 side chain; on linkers, the order of the positions; unused ones are H or OH. Square brackets hold non-standard residues; d marks the D form. Peptide text beside a SMILES is read from it. X2 = CCC[C@@H](N[*:1])[C@H](C)C(=O)O[C@H](C(=O)[*:2])[C@@H](C)CC; X3 = CC[C@H](C)[C@H](OC(=O)[C@@H](C)[C@@H](CC)N[*:1])C(=O)[*:2]; dAbuψ(thiazoline)Cys = CC[C@@H](N[*:1])C1=N[C@H](C(=O)[*:2])CS1; X4 = CN([C@@H](Cc1ccccc1)C1=N[C@H](C(=O)[*:2])CS1)[*:1]; dβ3hAla(2R-Me) = C[C@@H](N[*:1])[C@@H](C)C(=O)[*:2]; X1 = C[C@H](N[*:1])C(=O)C(C)(C)C(=O)[*:2]; d(aThr) = C[C@@H](O)[C@@H](N)C(=O)O; NMeF = CN[C@@H](Cc1ccccc1)C(=O)O; PhLac = O=C(O)[C@@H](O)Cc1ccccc1; NMeL = CN[C@@H](CC(C)C)C(=O)O; dNMeL = CN[C@H](CC(C)C)C(=O)O; NMeV = CN[C@H](C(=O)O)C(C)C; NMeA = CN[C@@H](C)C(=O)O

A short description of experiment [1]: Cytotoxicity against mouse Neuro2a cells after 48 hrs by MTT assay. The experiment is classed as functional, cell-based. The settings on record: N2a. In general terms: Tetrazolium dyes change colour on reduction, which living cells bring about.
The test system of a further experiment is HeLa. Put plainly: Cytotoxicity against human HeLa cells after 48 hrs by MTT assay. The experiment is classed as functional, cell-based.

On to `CCC[C@H]1NC(=O)[C@H](C)N(C)C(=O)C(C)(C)C(=O)[C@H](C)NC(=O)[C@H](Cc2ccccc2)N(C)C(=O)[C@H](C(C)C)N(C)C(=O)CNC(=O)[C@H](CC(C)C)N(C)C(=O)CNC(=O)[C@H]([C@@H](C)CC)OC(=O)[C@H]1C` (cyclo(G[NMeL]G[NMeV][NMeF][X1][NMeA][X2])), for which the IC50 (commonly the concentration that gives 50% inhibition) in experiment [1] was more than 10000 nM. In turn, `CC[C@H](C)[C@@H]1OC(=O)[C@@H](C)[C@@H](CC)NC(=O)[C@H](C)N(C)C(=O)C(C)(C)C(=O)[C@H](C)NC(=O)[C@H](Cc2ccccc2)N(C)C(=O)[C@H](C(C)C)N(C)C(=O)CNC(=O)[C@H](CC(C)C)N(C)C(=O)CNC1=O` [DOLASTATIN 12] (cyclo(G[NMeL]G[NMeV][NMeF][X1][NMeA][X3])) gave an IC50 in experiment [1] of more than 1000 nM. In the case of `CC[C@H]1NC(=O)[C@@H]2CSC(=N2)[C@H](Cc2ccccc2)N(C)C(=O)[C@@H]2CCCN2C(=O)[C@H](C(C)C)N(C)C(=O)[C@H](Cc2ccccc2)OC(=O)[C@H](C)[C@@H](C)NC(=O)[C@@H]([C@@H](C)O)NC(=O)[C@@H](CC(C)C)N(C)C(=O)[C@@H]2CSC1=N2` [GRASSYPEPTOLIDE C] (cyclo([NMeV]P[X4][dAbuψ(thiazoline)Cys][dNMeL][d(aThr)][dβ3hAla(2R-Me)][PhLac])), in the experiment with HeLa, the half-maximal inhibitory concentration (IC50) worked out at 45 nM. On to `CC[C@H]1NC(=O)[C@@]2(C)CSC(=N2)[C@H](Cc2ccccc2)N(C)C(=O)[C@@H]2CCCN2C(=O)[C@H](C(C)C)N(C)C(=O)[C@H](Cc2ccccc2)OC(=O)[C@H](C)[C@@H](C)NC(=O)[C@@H]([C@@H](C)O)NC(=O)[C@@H](CC(C)C)N(C)C(=O)[C@@H]2CSC1=N2` [GRASSYPEPTOLIDE D], for which the values for the concentration for half-maximal inhibition (IC50) (in the experiment with HeLa; in experiment [1]) were 335 nM and 599 nM, respectively. In the same order, the values of `CC[C@H]1NC(=O)[C@@]2(C)CSC(=N2)[C@H](Cc2ccccc2)N(C)C(=O)[C@@H]2CCCN2C(=O)[C@H](C(C)C)N(C)C(=O)[C@H](Cc2ccccc2)OC(=O)[C@H](C)[C@@H](C)NC(=O)[C@H]([C@@H](C)O)NC(=O)[C@H](CC(C)C)N(C)C(=O)[C@@H]2CSC1=N2` [GRASSYPEPTOLIDE E] are 192 nM and 407 nM.
